Assay results taken from PubChem BioAssay (NCI).
Values joined by “and” are separate entries in the source; they are usually repeats but may differ in a detail not shown here. Identical values can stand only once.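 Five concentrations, 48 hours, 96-well plates. GI50: concentration for 50% inhibition of growth. TGI denotes the concentration required for complete inhibition of growth.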

Columns and labels:
Assay in all cases: NCI-60 cell line screen, 48 h
HCT-15 colon = system: HCT-15 colon
HOP-92 NSCLC = system: HOP-92 NSCLC
KM12 colon = system: KM12 colon
NCI-H226 lung = system: NCI-H226 lung
NCI-H23 lung = system: NCI-H23 lung
OVCAR-8 ovarian = system: OVCAR-8 ovarian
RXF 393 renal = system: RXF 393 renal
SNB-19 CNS = system: SNB-19 CNS
SNB-75 CNS = system: SNB-75 CNS
UO-31 renal = system: UO-31 renal

Compound | GI50 (HCT-15 colon) | TGI (HCT-15 colon) | GI50 (HOP-92 NSCLC) | TGI (HOP-92 NSCLC) | GI50 (KM12 colon) | TGI (KM12 colon) | GI50 (NCI-H226 lung) | TGI (NCI-H226 lung) | GI50 (NCI-H23 lung) | TGI (NCI-H23 lung) | GI50 (OVCAR-8 ovarian) | TGI (OVCAR-8 ovarian) | GI50 (RXF 393 renal) | TGI (RXF 393 renal) | GI50 (SNB-19 CNS) | TGI (SNB-19 CNS) | GI50 (SNB-75 CNS) | TGI (SNB-75 CNS) | GI50 (UO-31 renal) | TGI (UO-31 renal)
CCCCCC(=O)OCC(=O)O[C@@H]1C[C@]2(C(C)C)O[C@@]1(C)[C@@H]1CC[C@@H](C)[C@H]1[C@@H]2OC(=O)/C=C/c1ccccc1 | > 34.3 µM | > 70 µM | 12.8 µM | > 74.5 µM | > 78.5 µM | > 100 µM | 50.6 µM | > 100 µM | > 52.8 µM | > 75.7 µM | 0.0907 µM | > 79.2 µM | 0.127 µM | > 6.51 µM | > 75.3 µM | > 100 µM | 42.4 µM | > 87.6 µM | 0.0408 µM | 0.254 µM
CC1CCC2C(C)C3C(CC4C5CC=C6CC(OC7OC(CO)C(O)C(OC8OC(CO)C(O)C(O)C8O)C7OC7OC(C)C(O)C(O)C7O)CCC6(C)C5CCC43C)N2C1 (configuration not stated) | > 2.5 µg/mL | 33 µM and > 2.5 µg/mL | > 2.5 µg/mL | 33.6 µM and > 2.5 µg/mL | > 2.5 µg/mL | 28.3 µM and > 2.5 µg/mL | > 2.5 µg/mL | 44.3 µM and > 2.5 µg/mL | > 2.5 µg/mL | 29.8 µM and > 2.5 µg/mL | > 2.5 µg/mL | 29.8 µM and > 2.5 µg/mL | > 2.5 µg/mL | 22.3 µM and > 2.5 µg/mL | > 2.5 µg/mL | 23.8 µM and > 2.5 µg/mL | > 2.5 µg/mL | 24.7 µM and > 2.5 µg/mL | > 2.5 µg/mL | 14.5 µM and > 2.5 µg/mL
O=C1C=CN(C2OC(CO)C(O)C2O)C(=O)C1 (configuration not stated) | 54.6 µM | 625 µM and > 2500 µM | 13.6 µM and 66.2 µM |  | 22.3 µM and 39.6 µM | 625 µM and > 2500 µM | > 625 µM | > 2500 µM | > 625 µM and 356 µM | > 2500 µM | 72.6 µM and 42.7 µM | 625 µM and > 2500 µM | 514 µM | 625 µM and > 2500 µM | > 625 µM and 819 µM | > 2500 µM |  | > 2500 µM | 26.7 µM | 625 µM and > 2500 µM
O=C(CCCNC(=O)OCc1ccccc1)OCc1ccc2c(c1)C(=O)c1ccccc1C2=O |  | > 100 µM |  | > 91.3 µM |  | > 100 µM |  | 42.6 µM |  | > 100 µM |  | > 56.2 µM |  | 48.5 µM |  | > 100 µM |  | 40.3 µM |  | > 100 µM
NC(N)=N/N=C/c1cccc(Cl)c1Cl | 3.25 µM | 11.7 µM | 1.19 µM | 5.88 µM | 2.17 µM | 4.91 µM | 13.6 µM | 29.2 µM | 11.2 µM | 26.4 µM | 8.93 µM | 25.8 µM | 4.75 µM | 18.3 µM | 3.32 µM | 11.8 µM | 11.6 µM | 26.9 µM | 10.1 µM | 22.7 µM
CCOC(=O)c1c(C)n(CC(C)C)c2c1cc1oc(=O)c(=O)n3cnc2c13 | 15.2 µM | > 50 µM | 14.5 µM | 43.4 µM | 13.6 µM | 38.3 µM | 9.63 µM | 29.2 µM | 12.3 µM | 31 µM | 12.5 µM | 36.7 µM | 12.9 µM | 49.7 µM | 36.2 µM | > 50 µM | 12.5 µM | > 50 µM | 20.7 µM | > 50 µM
CC(F)(F)c1cc(F)ccc1-c1sc2cc(O)ccc2c1Oc1ccc(/C=C/C(=O)O)cc1 | 4.13 µM | 18.2 µM | 11.1 µM | 27.3 µM | 4.72 µM | 18.4 µM | 5.78 µM | 25 µM | 15.2 µM | 37.4 µM | 12.2 µM | 69.1 µM | 2.89 µM | 14.5 µM | 7.28 µM | 20.2 µM | 3.52 µM | 19.8 µM | 12.9 µM | 31.5 µM
O=C(N=Nc1c(O)[nH]c2c(Cl)cc(Cl)cc12)c1ccncc1 |  | > 100 µM |  | > 100 µM |  | > 100 µM |  | > 100 µM |  | 56.5 µM |  | 67.8 µM |  | 61.4 µM |  | > 100 µM |  | 95.2 µM |  | > 100 µM
CCOC(=O)CNC(=O)CCCn1c(=O)c2c3ccccc3n(C)c2n2nnc(-c3ccccc3)c12 | > 50 µM | > 50 µM | 3.6 µM | 14.8 µM | > 50 µM | > 50 µM | 25.1 µM | > 50 µM | 11.8 µM | > 50 µM | 25.2 µM | > 50 µM | 1.33 µM | 4.41 µM | 5.83 µM | 22.7 µM | 1.12 µM | 3.59 µM | 47.8 µM | > 50 µM
CCCCCCCCCCCCOC1C(C(COC2OC(C(O)CN3CCCCC3)C3OC(C)(C)OC23)NC(=O)Nc2ccccc2)OC2OC(C)(C)OC21 (configuration not stated) | 8.6 µM | 24.3 µM | 6.86 µM | 19.7 µM | 7.06 µM | 18.7 µM | 17 µM | 38.1 µM | 17.9 µM | 37.1 µM | 15.5 µM | 39.7 µM | 6.03 µM | 26.1 µM | 18.2 µM | 44.5 µM | 13.6 µM | 29.8 µM | 10.3 µM | 28.2 µM
BrC(Br)(Br)c1cnc2ccccc2n1 | 2.03 µM | 6.2 µM | 1.5 µM | 3.14 µM | 2.37 µM | 7.7 µM | 3.91 µM | 8.38 µM | 3.6 µM | 17.1 µM | 1.76 µM | 4.07 µM | 1.06 µM | 2.4 µM | 3.33 µM | 16.1 µM | 2.94 µM | 13.2 µM | 0.793 µM | 2.39 µM
O=C1NC(=O)C2(CCC(O)C2)c2cc[n+]([O-])cc21 (configuration not stated) |  | > 100 µM |  | > 100 µM |  | > 100 µM |  | > 100 µM |  | > 100 µM |  | > 100 µM |  | > 100 µM |  | > 100 µM |  | > 100 µM |  | > 100 µM
Cc1ccc2[nH]c(C(=O)NN3C(=O)CSC34CCCC(C)C4)c(-c3ccccc3)c2c1 (configuration not stated) | 18.3 µM | 37.2 µM | 13.1 µM | 28.3 µM | 16.2 µM | 34.3 µM | 18.4 µM | 35.2 µM | 20 µM | 36 µM | 15.6 µM | 32.9 µM | 5.85 µM | 20.3 µM | 18.6 µM | 36.6 µM | 17.1 µM | 34.6 µM | 0.0274 µM | 10.6 µM
O=C(CCC(=O)N/N=C/c1ccccc1O)N/N=C/c1ccccc1O |  | > 100 µM |  | 56.7 µM |  | > 100 µM |  | > 100 µM |  | > 100 µM |  | > 100 µM |  | 44.4 µM |  | > 100 µM |  | 31.7 µM |  | > 100 µM
COc1cc(C2CC(c3ccc4c(c3)OCO4)=NN2C(C)=O)cc(OC)c1OC (configuration not stated) | 0.584 µM | > 100 µM | > 100 µM | > 100 µM | 0.422 µM | 52.9 µM | 13.5 µM | > 100 µM | 1.81 µM | > 100 µM | 5.51 µM | > 100 µM | 1.56 µM | > 23.2 µM | 1.91 µM | > 100 µM | 0.398 µM | 3.5 µM | 3.72 µM | > 86.8 µM
Cc1ccccc1-n1c(/C=C\c2ccccn2)nc2ccccc2c1=O | 7.39 µM | 37.2 µM | 3.32 µM | 67.1 µM | 11.1 µM | 27.9 µM | 28.8 µM | > 100 µM | 6.06 µM | 57.4 µM | 21.4 µM | > 100 µM | 4.33 µM | 20 µM | 32.1 µM | > 100 µM | 16.9 µM | > 100 µM | 7.51 µM | > 100 µM
CN(C)c1nc(N(C)C)n2nc(-c3ccccc3[N+](=O)[O-])nc2n1 |  | 31.3 µM |  | > 100 µM |  | > 100 µM |  | > 100 µM |  | > 100 µM |  | > 100 µM |  | > 100 µM |  | > 100 µM |  | > 100 µM |  | > 100 µM
CS(=O)c1ccc(-c2nc(-c3ccc(F)cc3)c(-c3ccncc3)[nH]2)cc1 (configuration not stated) | 30.2 µM | > 100 µM | 28.8 µM | > 100 µM | 35.9 µM | > 100 µM | 24.7 µM | > 73.1 µM | 59.2 µM | > 100 µM | 29.6 µM | > 100 µM | 15.7 µM | 39.3 µM | > 77.3 µM | > 100 µM | > 44.6 µM | > 100 µM | 20.1 µM | > 79.6 µM
COc1ccccc1CNC(=O)C1c2ccccc2C(=O)N(CC(C)C)C1c1cccs1 (configuration not stated) | 20.8 µM | > 100 µM | 8.15 µM | 44 µM | 24.8 µM | > 100 µM | 20.4 µM | 72.4 µM | 25.8 µM | > 100 µM | 23.6 µM | > 100 µM | 17.3 µM | 48 µM | 28.8 µM | > 100 µM | 18.1 µM | > 100 µM | 17.7 µM | 72.5 µM
COc1cccc(Cn2cc3c(c2)-c2oncc2CC3)c1 | 0.401 µM | > 38.1 µM | 2.17 µM | 68.3 µM | 0.379 µM | 3.02 µM | 2.72 µM | > 100 µM | 0.471 µM | > 80.7 µM | 0.622 µM | > 69.3 µM | 0.368 µM |  | 0.543 µM | > 100 µM | 0.211 µM | 0.895 µM | 0.671 µM | 43.7 µM
